Values after ≈ are worked out from the molar mass of the structure shown. Read-outs that look alike come from different tables or passages of the source.
Experiments:
[1] = background and U.S. Pat. No. 4,322,410; cited from earlier work
[2] = tested on: alkaline phosphatase; conditions: requires alkaline phosphatase; cited from earlier work
[3] = Solubility of acetaminophen prodrugs in water; format: physicochemical
[4] = tested on: myocytes; conditions: guinea pigs, low-flow global myocardial ischemia 30 minutes, then 60 minutes of reperfusion; cited from earlier work
[5] = Goodman and Gillman's; cited from earlier work
[6] = cited from earlier work
[7] = tested on: rat hippocampus; conditions: rat hippocampus insulted with quinolinic acid; cited from earlier work
[8] = water, room temperature, read-out: solubility in water at room temperature
[9] = Anesthesia and Analgesia 101, 90-96, 2005
[10] = British Journal of Anaesthesia 94 (5): 642-648, 2005

| Structure (SMILES) | water solubility [1] | solubility [3, 8] [mg/mL] | local tolerance profile [6, 9] [%] | local tolerance profile [6, 10] [%] | further results |
| --- | --- | --- | --- | --- | --- |
| CC(=O)Nc1ccc(OP(=O)(O)O)cc1 [4-acetamidophenyl dihydrogen phosphate] | 50 g per 100 mL | – | – | – | time in vitro to yield acetaminophen from the derivative [2]: about 15 hours |
| CC(=O)Nc1ccc(OCOP(=O)(O)O)cc1 [(4-acetamidophenoxy)methyl dihydrogen phosphate] | – | ~145 | – | – | solubility ([3]; water, solvent water, read-out: Solubility): 145 mg/mL |
| CC(=O)Nc1ccc(O)cc1 [Acetaminophen, N-(4-hydroxyphenyl)acetamide] | about 1.3 g per 100 mL | ~13 (≈ 86 mM) | 0 | 52 | apoptosis in myocytes [4]: decrease apoptosis in myocytes; half-life [5]: about 2 hours; lipid peroxidation and superoxide anion generation [7]: inhibit both lipid peroxidation and superoxide anion generation |
| CCN(CC)CC(=O)Oc1ccc(NC(C)=O)cc1 [Propacetamol, 4-acetamidophenyl 2-(diethylamino)acetate] | – | – | 49 | 90 | – |
| CC(=O)Nc1ccc(OCOP(=O)(O)O)cc1 [Sodium (4-acetamidophenoxy)methyl phosphate] | – | – | – | – | solubility ([3]; solvent water, phosphate): 160 mg/mL; solubility in water at room temperature ([3]; water, room temperature, phosphate): ~160 mg/mL |
